In brackets after ≈: the same amount, converted by molar mass.
Key:
Format in all cases: cell-based
[1] = test system: E. coli 8 ATCC 25922; experiment: MIC, E. coli 8 (wt); conditions: E. coli 8 (EC8)
[2] = test system: S. pneumoniae ATCC 51916; experiment: MIC, S. pneumoniae; conditions: S. pneumoniae (Spn52); in µg/mL
[3] = test system: S. aureus ATCC 13709; experiment: MIC, antibacterial potency, S. aureus; conditions: S. aureus (SA); in µg/mL

CCc1[nH]c2nc(Sc3ccc4cncnc4c3)nc(N3CC4C(N)C4C3)c2c1Cl (stereo not drawn) [701,069]
MIC EC8 [1]: 8 µg/mL (≈ 18.3 µM)
MIC Spn52 [2]: <=0.5
MIC, SA [3]: <=0.5

CCc1[nH]c2nc(Sc3ccc4nccnc4c3)nc(N3C[C@@H]4C(N)[C@@H]4C3)c2c1Cl (stereo partly drawn) [701,006]
MIC EC8 [1]: > 64 µg/mL
MIC Spn52 [2]: <=0.5
MIC, SA [3]: <=0.5

CCc1[nH]c2nc(Oc3ccc4nccnc4c3)nc(C)c2c1Cl [701,232]
MIC EC8 [1]: > 64 µg/mL
MIC Spn52 [2]: 4
MIC, SA [3]: 1

CCc1[nH]c2nc(Sc3cnc4ccc[n+]([O-])c4c3)nc(N3CC4(CNC4)C3)c2c1Cl [701,038]
MIC EC8 [1]: 16 µg/mL (≈ 35.2 µM)
MIC Spn52 [2]: 32
MIC, SA [3]: 8

CCc1[nH]c2nc(Sc3ccc4cc5c([n+]([O-])c4c3)CCNC5)nc(N3CC4C(N)C4C3)c2c1Cl (stereo not drawn) [700,972]
MIC EC8 [1]: 4 µg/mL (≈ 7.87 µM)
MIC Spn52 [2]: 1
MIC, SA [3]: <=0.5

CCc1[nH]c2nc(Sc3cc(C(=O)NOC)c4ncccc4c3)nc(N3CC[C@@H](N)C3)c2c1Cl [701,015]
MIC EC8 [1]: > 64 µg/mL
MIC Spn52 [2]: 2
MIC, SA [3]: <=0.5

CCc1[nH]c2nc(Sc3cnc4cccnc4c3)nc(N3CCC(NCCN)C3)c2c1Cl (stereo not drawn) [700,921]
MIC EC8 [1]: > 64 µg/mL
MIC Spn52 [2]: 4
MIC, SA [3]: 2

CCc1[nH]c2nc(Oc3ccc[n+]([O-])c3)nc(Oc3ccc[n+]([O-])c3)c2c1Br [701,092]
MIC EC8 [1]: > 64 µg/mL
MIC Spn52 [2]: 2
MIC, SA [3]: <=0.5

CCc1[nH]c2nc(Sc3cnc4cccnc4c3)nc(N3C[C@H](C(=O)NC4CNC4)[C@@H](N)C3)c2c1Cl [701,004]
MIC EC8 [1]: > 64 µg/mL
MIC Spn52 [2]: >64
MIC, SA [3]: 32

CCc1[nH]c2nc(Oc3ccc4nccnc4c3)nc(N3CC[C@@H](N)C3)c2c1Cl [701,000]
MIC EC8 [1]: 64 µg/mL (≈ 156 µM)
MIC Spn52 [2]: 8
MIC, SA [3]: 4

CCc1[nH]c2nc(Sc3ccc4nc(N5CC(N)C5)cnc4c3)nc(N3CC[C@@H](N)C3)c2c1Cl [701,014]
MIC EC8 [1]: 32 µg/mL (≈ 64.5 µM)
MIC Spn52 [2]: 8
MIC, SA [3]: 4

CCc1[nH]c2nc(Sc3cnc4cccnc4c3)nc(N3CC[C@@H](N)C3)c2c1C [701,161]
MIC EC8 [1]: 64 µg/mL (≈ 158 µM)
MIC Spn52 [2]: 16
MIC, SA [3]: 4

CCc1[nH]c2nc(Oc3cncc(C#N)c3)nc(N3CC4C(C3)C4(N)C(N)=O)c2c1Cl (stereo not drawn) [700,981]
MIC EC8 [1]: > 32 µg/mL
MIC Spn52 [2]: 16
MIC, SA [3]: 16

CCc1[nH]c2nc(Oc3cncnc3)nc(N3CC4CNC4C3)c2c1Cl (stereo not drawn) [700,941]
MIC EC8 [1]: > 64 µg/mL
MIC Spn52 [2]: 8
MIC, SA [3]: 4

CCc1[nH]c2nc(Oc3ccc4nccnc4c3)nc(Oc3cnc4c(c3)ncn4C)c2c1Br [700,988]
MIC EC8 [1]: > 64 µg/mL
MIC Spn52 [2]: <=0.5
MIC, SA [3]: <=0.5

CCc1[nH]c2nc(Sc3ccc4c(N5CC(CN)C5)cc(C(F)(F)F)nc4c3)nc(N3CC[C@@H](N)C3)c2c1Cl [700,917]
MIC EC8 [1]: 8 µg/mL (≈ 13.9 µM)
MIC Spn52 [2]: 4
MIC, SA [3]: 4

CCc1[nH]c2nc(N3CCN(c4cc(C(=O)O)nc5ccc(Cl)cc45)CC3)ncc2c1Cl [701,260]
MIC EC8 [1]: > 64 µg/mL
MIC Spn52 [2]: 64
MIC, SA [3]: 8

CCc1[nH]c2nc(Sc3ccc4[nH]cc(C(=O)OC)c4c3)nc(N3CC[C@@H](N)C3)c2c1Cl [701,062]
MIC EC8 [1]: > 64 µg/mL
MIC Spn52 [2]: 16
MIC, SA [3]: 16

CCc1[nH]c2nc(Sc3cnc4cccnc4c3)nc(N3C[C@@H]4NCCO[C@@H]4C3)c2c1Cl [700,959]
MIC EC8 [1]: > 64 µg/mL
MIC Spn52 [2]: 2
MIC, SA [3]: 2

NC(=O)C1(N)C2CN(c3nc(Sc4cnc5nccnc5c4)nc4[nH]c(C5CC5)c(Cl)c34)CC21 (stereo not drawn) [700,975]
MIC EC8 [1]: > 64 µg/mL
MIC Spn52 [2]: 8
MIC, SA [3]: 8

CCc1[nH]c2nc(Sc3cnc4cccnc4c3)nc(N3C[C@H](N)[C@H](C(=O)NCC(O)CO)C3)c2c1Cl (stereo partly drawn) [701,019]
MIC EC8 [1]: > 32 µg/mL
MIC Spn52 [2]: >32
MIC, SA [3]: >32

CCc1[nH]c2nc(Oc3cncnc3)nc(Oc3cc(N)cc(C#N)c3)c2c1Br [701,250]
MIC EC8 [1]: > 64 µg/mL
MIC Spn52 [2]: <=0.5
MIC, SA [3]: <=0.5

CCc1[nH]c2nc(Sc3cnc4cccnc4c3)nc(N3CCC(CNS(=O)(=O)c4cnoc4C)C3)c2c1Cl (stereo not drawn) [701,046]
MIC EC8 [1]: > 64 µg/mL
MIC Spn52 [2]: 4
MIC, SA [3]: 2

CCc1[nH]c2nc(Sc3cnc4ccc[n+]([O-])c4c3)nc(N3CCC4CNC4C3)c2c1Cl (stereo not drawn) [701,116]
MIC EC8 [1]: 16 µg/mL (≈ 34.2 µM)
MIC Spn52 [2]: 2
MIC, SA [3]: <=0.5

CCc1[nH]c2nc(Sc3ccc4cc5c([n+]([O-])c4c3)CCNC5)nc(N3CC[C@@H](N)C3)c2c1Cl [700,940]
MIC EC8 [1]: 8 µg/mL (≈ 16.1 µM)
MIC Spn52 [2]: 8
MIC, SA [3]: 2

CCc1[nH]c2nc(Sc3ccc4nccnc4c3)nc(N3CC[C@@H](N)C3)c2c1Cl [701,005]
MIC EC8 [1]: 16 µg/mL (≈ 37.6 µM)
MIC Spn52 [2]: <=0.5
MIC, SA [3]: <=0.5

CCc1[nH]c2nc(Sc3cnc4cccnc4c3)nc(N3C[C@H](N)[C@H](C(=O)Nc4nccs4)C3)c2c1Cl [701,024]
MIC EC8 [1]: > 64 µg/mL
MIC Spn52 [2]: 2
MIC, SA [3]: 2

CCc1[nH]c2nc(Oc3cncnc3)nc(N3CC4C(C3)C4NC(C)=O)c2c1Br (stereo not drawn) [701,052]
MIC EC8 [1]: > 16 µg/mL
MIC Spn52 [2]: 8
MIC, SA [3]: 4

CCc1[nH]c2nc(Oc3cncc(C#N)c3)nc(Oc3cc(C#N)cc(OC)c3)c2c1Br [700,933]
MIC EC8 [1]: > 64 µg/mL
MIC Spn52 [2]: 4
MIC, SA [3]: 2

NC1CN(c2ncnc3cc(Sc4nc(N5CC[C@@H](N)C5)c5c(Cl)c(C6CC6)[nH]c5n4)ccc23)C1 [700,995]
MIC EC8 [1]: 64 µg/mL (≈ 126 µM)
MIC Spn52 [2]: >64
MIC, SA [3]: >64

CCc1[nH]c2nc(Oc3cncnc3)nc(N3CC(N)C3)c2c1Cl [700,907]
MIC EC8 [1]: 64 µg/mL (≈ 185 µM)
MIC Spn52 [2]: 16
MIC, SA [3]: 8

CCc1[nH]c2nc(Sc3cc(C#N)c4c(c3)c(=O)ccn4C)nc(N3CC[C@@H](N)C3)c2c1Cl [701,088]
MIC EC8 [1]: 32 µg/mL (≈ 66.7 µM)
MIC Spn52 [2]: 1
MIC, SA [3]: 1

CCc1[nH]c2nc(Oc3ccc4nccnc4c3)nc(OC3CCN(C(=O)OC(C)(C)C)CC3)c2c1Cl [701,289]
MIC EC8 [1]: > 64 µg/mL
MIC Spn52 [2]: >64
MIC, SA [3]: 16

CCc1[nH]c2nc(Oc3ccc4nccnc4c3)nc(Oc3ccc4c(N)nc(N)nc4c3)c2c1Br [700,979]
MIC EC8 [1]: > 64 µg/mL
MIC Spn52 [2]: 4
MIC, SA [3]: <=0.5

CCc1[nH]c2nc(Sc3ccc4c[n+]([O-])cnc4c3)nc(N3CC[C@@H](N)C3)c2c1Cl [701,051]
MIC EC8 [1]: > 32 µg/mL
MIC Spn52 [2]: 4
MIC, SA [3]: 2

CCc1[nH]c2nc(Oc3cccc(C#N)c3)nc(C(C)O)c2c1Cl (stereo not drawn) [700,930]
MIC EC8 [1]: > 64 µg/mL
MIC Spn52 [2]: 16
MIC, SA [3]: 8

CCc1[nH]c2nc(Oc3cnc(OC)c(OC)c3)nc(Oc3cnc(OC)c(OC)c3)c2c1Br [701,097]
MIC EC8 [1]: > 64 µg/mL
MIC Spn52 [2]: 1
MIC, SA [3]: <=0.5

CCc1[nH]c2nc(Sc3cnc4cccnc4c3)nc(N3C[C@H](N)[C@H](C(=O)N4CC[C@@H](N)C4)C3)c2c1Cl [701,023]
MIC EC8 [1]: > 64 µg/mL
MIC Spn52 [2]: >64
MIC, SA [3]: >64

CCc1[nH]c2nc(Oc3cncnc3)nc(Oc3ccc4ncnc(N5CC(N)C5)c4c3)c2c1Br [701,297]
MIC EC8 [1]: > 64 µg/mL
MIC Spn52 [2]: 16
MIC, SA [3]: 4

CCc1[nH]c2nc(N3CCN(c4cc(C(=O)OC)nc5ccc(Cl)cc45)CC3)ncc2c1Cl [701,237]
MIC EC8 [1]: > 64 µg/mL
MIC Spn52 [2]: >64
MIC, SA [3]: >64

CCc1[nH]c2nc(Sc3ccc4nc(C)nc(N5CC6CNC6C5)c4c3)nc(N3CC[C@@H](N)C3)c2c1Cl (stereo partly drawn) [700,916]
MIC EC8 [1]: > 64 µg/mL
MIC Spn52 [2]: >64
MIC, SA [3]: 64

CCc1[nH]c2nc(Oc3cncc(C#N)c3)ncc2c1Cl [701,261]
MIC EC8 [1]: > 64 µg/mL
MIC Spn52 [2]: 16
MIC, SA [3]: 4

CCc1[nH]c2nc(Sc3ccc4c(N5CC(CN)C5)nc(C)nc4c3)nc(N3CC4C(C3)C4(N)C(N)=O)c2c1Cl (stereo not drawn) [700,956]
MIC EC8 [1]: > 64 µg/mL
MIC Spn52 [2]: 32
MIC, SA [3]: 8

CCc1[nH]c2nc(Oc3ccc4nccnc4c3)nc(N3CC(O)C3)c2c1Cl [700,948]
MIC EC8 [1]: > 16 µg/mL
MIC Spn52 [2]: 4
MIC, SA [3]: <=0.5
